Assay results reported in the supplement of paper PMC11061612.

Experiments:
Assay in all cases: Bliss excess, mean over the matrix (fraction); higher = more synergy
[1] = system: UM-UC-3 (Bladder Carcinoma)
Procedure, shortened: (§1)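 Bliss excess equals the observed combination effect minus the expected value EA + EB − EA·EB, where EA and EB are the effects of each agent alone. Combination Emax is the second-highest inhibition within the matrix. Inhibition was scaled from CellTiter-Glo 2.0 luminescence, with 0 set by vehicle wells and 1 by blank wells, after 72 hours of two-drug dosing of cells plated in 1536-well plates.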

[2] = system: ES4 (Ewing's Sarcoma)
Procedure, shortened: as §1

[3] = system: LS-180 (Colorectal Carcinoma)
Procedure, shortened: as §1

[4] = system: NCI-H82 (Small Cell Lung Carcinoma)
Procedure, shortened: as §1

[5] = system: CAL-148 (Breast Carcinoma)
Procedure, shortened: as §1

[6] = system: MDA-MB-361 (Breast Carcinoma)
Procedure, shortened: as §1

[7] = system: NCI-H2085 (Non-Small Cell Lung Carcinoma)
Procedure, shortened: as §1

[8] = system: HuP-T4 (Pancreatic Carcinoma)
Procedure, shortened: as §1

[9] = system: HCC1806 (Breast Carcinoma)
Procedure, shortened: as §1

[10] = system: SK-ES-1 (Ewing's Sarcoma)
Procedure, shortened: as §1

[11] = system: 42-MG-BA (Glioblastoma)
Procedure, shortened: as §1

[12] = system: TE-15 (Esophageal Squamous Cell Carcinoma)
Procedure, shortened: as §1

| SMILES | Bliss excess [1] | Bliss excess [2] | Bliss excess [3] | Bliss excess [4] | Bliss excess [5] | Bliss excess [6] | Bliss excess [7] | Bliss excess [8] | Bliss excess [9] | Bliss excess [10] | Bliss excess [11] | Bliss excess [12] |
| --- | --- | --- | --- | --- | --- | --- | --- | --- | --- | --- | --- | --- |
| CC(=O)c1c(C)c2cnc(Nc3ccc(N4CCNCC4)cn3)nc2n(C2CCCC2)c1=O [Palbociclib] + Cc1c2c(nn1C)CSCc1cc(n(C)n1)CSc1cc(c3ccccc3c1)OCCCc1c(C(=O)O)n(C)c3c-2c(Cl)ccc13 [AZD5991] (first compound max 10 µM, 7x7, partner max 1 µM) | -0.0212 | -0.046 | -0.0515 | -0.0534 | -0.0063 | -0.0789 | -0.0374 | -0.0184 | -0.0164 | -0.0088 | -0.0391 | -0.0236 |
| CC(=O)c1c(C)c2cnc(Nc3ccc(N4CCNCC4)cn3)nc2n(C2CCCC2)c1=O [Palbociclib] + Cn1cnc2c(F)c(Nc3ccc(Br)cc3Cl)c(C(=O)NOCCO)cc21 [Selumetinib] (first compound max 10 µM, 7x7, partner max 10 µM) | -0.0001 | -0.0359 | 0.0098 | -0.0216 | -0.0462 | -0.0238 | 0.0018 | 0.0396 | 0.0382 | -0.0161 | -0.0776 | 0.0179 |
| COc1cccc(OCCCN)c1-c1cc(Nc2cnc(C#N)cn2)n[nH]1 [Prexasertib] + C=CCn1c(=O)c2cnc(Nc3ccc(N4CCN(C)CC4)cc3)nc2n1-c1cccc(C(C)(C)O)n1 [AZD1775] (first compound max 1 µM, partner max 1 µM) | 0.14 | 0.0978 | 0.184 | 0.0778 | 0.136 | 0.0331 | 0.124 | 0.0747 | 0.0552 | 0.0454 | 0.0835 | 0.0165 |
| COc1cccc(OCCCN)c1-c1cc(Nc2cnc(C#N)cn2)n[nH]1 [Prexasertib] + CCc1c2c(nc3ccc(O)cc13)-c1cc3c(c(=O)n1C2)COC(=O)[C@]3(O)CC [SN-38] (first compound max 1 µM, 7x7, partner max 0.3 µM) | 0.0017 | -0.0923 | -0.0629 | 0.0347 | -0.0388 | -0.0298 | -0.0245 | -0.0424 | -0.001 | -0.0081 | 0.0122 | -0.0275 |
| COc1cccc(OCCCN)c1-c1cc(Nc2cnc(C#N)cn2)n[nH]1 [Prexasertib] + CN(C)CCCOc1ccc(-c2ccc3ncc4c(c3c2)n(C2CCOCC2)c(=O)n4C)cn1 [AZD0156] (first compound max 1 µM, 7x7, partner max 1 µM) | -0.0174 | 0.0147 | -0.0605 | 0.0117 | -0.0115 | 0.0014 | 0.006 | -0.0273 | -0.0262 | 0.0075 | 0.023 | -0.0346 |
| COc1cccc(OCCCN)c1-c1cc(Nc2cnc(C#N)cn2)n[nH]1 [Prexasertib] + C[C@@H]1COCCN1C2=NC(=NC(=C2)C3(CC3)[S@](=N)(=O)C)C4=C5C=CNC5=NC=C4 [AZD6738] (first compound max 1 µM, 7x7, partner max 10 µM) | 0.0563 | -0.0489 | 0.0194 | -0.0186 | 0.0988 | -0.018 | -0.0092 | -0.0504 | -0.0472 | -0.0132 | -0.0994 | -0.0395 |
| COc1cccc(OCCCN)c1-c1cc(Nc2cnc(C#N)cn2)n[nH]1 [Prexasertib] + Cc1cc2ncnn2cc1Nc1ncc2c(n1)n(C1CCOCC1)c(=O)n2C [AZD7648] (first compound max 1 µM, 7x7, partner max 10 µM) | -0.0198 | -0.0121 | -0.0329 | -0.0355 | 0.0235 | -0.0196 | -0.0481 | 0.0127 | -0.0193 | -0.0257 | -0.0574 | -0.0105 |
| COc1cccc(OCCCN)c1-c1cc(Nc2cnc(C#N)cn2)n[nH]1 [Prexasertib] + O=C(c1cc(Cc2n[nH]c(=O)c3ccccc23)ccc1F)N1CCN(C(=O)C2CC2)CC1 [Olaparib] (first compound max 1 µM, 7x7, partner max 10 µM) | -0.0015 | -0.0699 | -0.0348 | -0.0735 | -0.0507 | -0.0509 | -0.208 | -0.0834 | -0.0284 | 0.0008 | -0.0399 | -0.0427 |
| COc1cc2c(cc1OCCCCCOc1cc3c(cc1OC)C(=O)N1C=C(C)C[C@H]1C=N3)N=C[C@@H]1CC(C)=CN1C2=O [SG3199] + O=C(c1cc(Cc2n[nH]c(=O)c3ccccc23)ccc1F)N1CCN(C(=O)C2CC2)CC1 [Olaparib] (first compound max 0.001 µM, 7x7, partner max 10 µM) | -0.0308 | -0.0097 | -0.0525 | -0.0075 | -0.0294 | -0.035 | -0.0323 | -0.0256 | -0.0132 | -0.0326 | 0.0075 | -0.0307 |
| CCc1c2c(nc3ccc(O)cc13)-c1cc3c(c(=O)n1C2)COC(=O)[C@]3(O)CC [SN-38] + CN(C)CCCOc1ccc(-c2ccc3ncc4c(c3c2)n(C2CCOCC2)c(=O)n4C)cn1 [AZD0156] (first compound max 0.3 µM, 7x7, partner max 1 µM) | 0.06 | 0.0523 | 0.0439 | 0.0287 | -0.0174 | -0.063 | -0.0026 | 0.0028 | -0.0222 | 0.0037 | 0.0561 | 0.0146 |
